Laboratory results as given in patent publication US20030104090A1, “Supplements containing annatto extracts and carotenoids and methods for using the same” (priority 2000, published 2003).
Read-outs that look alike come from different tables or passages of the source. Each block holds one compound with its values, some of them ahead of it.

What was measured:
[1] = test system: lipoxidase; conditions: cited from earlier work; for antioxidant activity and lipoxidase inhibition: in vitro, isolated cell or enzyme systems
[2] = Serum levels of bixin and norbixin in human volunteers on bixin supplementation (Example 1); type: in vivo; conditions: human test group, 20 milligrams bixin daily as two 10 mg capsules, during supplementation
Text: (§1) Two groups of human volunteers (3 individuals in the test group and 5 in the control group) were exposed to high oxidative stress conditions by breathing contaminated air of a high ozone level and a high concentration of smoke over a period of four to five days for one half hour per day. Both groups were given the same diets. Namely, they consumed their normal daily diets but avoided foods rich in carotenoids, particularly foods containing annatto (as a colorant), from two weeks before the exposure until two weeks after the exposure.
During the period of bixin supplementation, the serum level of bixin and norbixin was zero in the control group, while the serum levels of bixin and norbixin in the individuals of the test group reached levels of 12 and 60 micrograms/liter, respectively.

[3] = rats, cited from earlier work
[4] = mice, 66 mg norbixin per kilogram body weight; cited from earlier work
[5] = mice and rats on high dietary doses; cited from earlier work
[6] = test system: DNA; conditions: cells exposed to radiation, metal ions and peroxides, cisplatin; cited from earlier work
[7] = target: aldose reductase (Homo sapiens, UniProt P15121); conditions: found in annatto leaf extract; cited from earlier work
[8] = 100 milligrams per day for 35 days; cited from earlier work
[9] = test system: hippocampal neuronal cells; conditions: by suppressing activation of c-Src kinase; cited from earlier work
[10] = dietary, pregnant rats; cited from earlier work
[11] = cited from earlier work
[12] = test system: tumor cells; conditions: e.g. human leukemia U937; cited from earlier work
[13] = test system: caspase-3; conditions: HL-60 cells; cited from earlier work
[14] = test system: PPARgamma and PPARalpha; conditions: 3T3-L1 adipocytes and HepG2 hepatocytes, in vitro; cited from earlier work
[15] = test system: esterification of retinol; conditions: cited from earlier work
[16] = test system: NIH3T3 cells; conditions: in combination with lovastatin, without the cytotoxicity of lovastatin alone; cited from earlier work
[17] = test system: thiobarbituric acid-reactive substances; experiment: Oxidative stress load in the blood, modified TBAR test and free radical content (Example 1); type: in vivo, human; conditions: humans exposed to high ozone and smoke, 20 mg bixin daily
Text: as §1

[18] = test system: WAZ-2T(-SA) mammary tumor cell line; experiment: Dietary bixin in mammary tumor development (Example 2); type: in vivo, BALB/c mice; conditions: for final tumor weight: 50 days after inoculation, control 1.1 grams; for tumor latency (days post inoculation when tumors first palpable): control 30 days
Description: (§2) Female BALB/c mice and the WAZ-2T(-SA) mammary tumor cell line were used to determine the efficacy of dietary bixin in inhibiting mammary tumor development. Six mice per treatment were fed a semi synthetic AlN-93M diet containing 0, 0.006 or 0.06% bixin. After 14 days, all mice were inoculated with 2500 tumor cells (a cell load which typically produces a 65% tumor incidence in untreated controls). Tumor growth was measured daily for 50 days, at which time blood, liver, spleen, and tumors were removed and evaluated. […] Final tumor weight was 0.3 grams at 0.06% dietary bixin, 0.7 grams at 0.006% and 1.1 grams for the control without dietary bixin. Tumor latency (number of days post inoculation when mammary tumors were first palpable) was 45 days at 0.06% dietary bixin level, 38 days at 0.006%, and 30 days for the control. Results were determined to be statistically significant at the P<0.05 level. […] It may thus be concluded that the dietary bixin protected the mice from mammary tumor development by triggering genes of immune related systems rather than by an antioxidant action at the cellular level.

[19] = test system: PIM-1, p-53, BAX, and BCL-2; experiment: mRNA expression in isolated splenocytes cultured with concanavalin-A (Example 2); type: cell-based, BALB/c mice; conditions: splenocytes of mice fed dietary bixin
Description: as §2

[20] = Acceptable daily intake (JECFA, 1982); parameters: species or system human; conditions: worked out from 0.065 mg/day/kg
Text: Bixin and its hydrolyzed form, norbixin, are used as coloring agents for human consumption, mainly in cheese (see Collins, “The role of annatto in food colouring,” Food Ingredients and Processing International, 23-27 (February 1992)). For some coloring applications, methylbixin has been commercially prepared by esterification of the […] of the bixin molecule (Zechmelster, et al., “A stereochernical study of methylbixin,” J. Am. Chem. Soc., 66:322330 (1944); Jondiko, et al., “Terpenoids and an apocarotenoid from seeds of B. orellana,” Phytochemistry, 28:3159-3162 (1989)). As a natural color additive to foods, particularly cheeses, bixin is typically added at concentrations of about 1 to 25 mg bixin per kg of food, although higher quantities may be used for some cheeses. Estimates of average daily intake of bixin compounds (usually bixin and norbixin) are of the order of 0.3 to 3 mg per day per person, although some studies report higher values, through the consumption of products such as cheeses, cake decoration, breakfast cereals, ice cream, snacks, margarine, and other foods in which bixin extract is added during food manufacture to provide color. The maximum ADI (acceptable daily intake) established by the Joint FAO/WHO Committee on Food Additives (JECFA, 1982) is 0.065 mg/day/kg body weight, expressed as bixin. […]

[21] = JECFA 1982, expressed as bixin; cited from earlier work
[22] = after human ingestion; cited from earlier work
[23] = test system: C3H- 1 O-T 1-2 cells; conditions: same level as lutein and canthaxanthin, surpassed only by alpha-tocopherol; cited from earlier work
[24] = test system: formation of cancer cells; conditions: carcinogenesis with methylcholantrene; cited from earlier work
[25] = rats, oral administration, gamma-radiation; cited from earlier work
[26] = test system: Connexin-43; conditions: cited from earlier work
[27] = test system: xenobiotic enzymes; conditions: rat, dietary supplementation; cited from earlier work

Compound: COC(=O)/C=C/C(C)=C/C=C/C(C)=C/C=C/C=C(C)/C=C/C=C(C)/C=C/C(=O)OC [methylbixin]
antioxidant activity and lipoxidase inhibition [1]: strong antioxidant activity and lipoxidase inhibition

serum level of norbixin [2]: 60 micrograms/liter
Compound: CC(/C=C/C=C(C)/C=C/C(=O)O)=C\C=C\C=C(C)\C=C\C=C(C)\C=C\C(=O)O (stereo in doubt) [norbixin]
hyperglycemia induced ([3]; 8.5 mg dietary norbixin/kg body weight): 27%
hyperglycemia induced ([3]; 74 mg/kg): 53%
hypoglycemia induced [4]: up to 22%
DNA breakage in liver and kidney [5]: no detectable DNA breakage
DNA protection in vitro [6]: protects DNA

Compound: isoscutellarein
aldose reductase inhibition [7]: aldose reductase inhibitor

Compound: tocotrienol
reduction of total cholesterol levels [8]: 20%
protection from glutamate-induced death [9]: protects
bioavailability to maternal and fetal brains [10]: bioavailable

Compound: vitamin E
urinary albumin excretion rate ([11]; humans with type 2 diabetes): significantly reduced
plasma levels of C-reactive molecules ([11]; patients with diabetes): decreased

Compound: CC(C)=CCC/C(C)=C/CC/C(C)=C/CC/C(C)=C/CO [geranylgeraniol]
induction of apoptosis [12]: very potent inducer of apoptosis
activation of caspase-3 [13]: selective activation
lipid metabolic target genes [14]: upregulates
esterification of retinol into inactive retinyl esters [15]: inhibits esterification
aberrant (oncogenic) signaling between cells [16]: selectively inhibits

serum level of bixin [2]: 12 micrograms/liter
maximum ADI for average human weight of 60 kg [20]: 3.9 mg per day
Compound: COC(=O)/C=C/C(C)=C\C=C\C(C)=C\C=C\C=C(C)\C=C\C=C(C)\C=C\C(=O)O [bixin]
oxidative stress level of the blood (modified TBAR test) ([17]; control group high): remained normal
free radical content of the blood ([17]; same relation as TBAR (control high, test normal)): same relation was found
final tumor weight ([18]; 0.006% dietary bixin): 0.7 grams
tumor latency (days post inoculation when tumors first palpable) ([18]; 0.006% dietary bixin): 38 days
final tumor weight ([18]; 0.06% dietary bixin): 0.3 grams
mammary tumor incidence and tumor growth rate ([18]; 0.06% dietary bixin, versus 0.006% and control): lowest
tumor latency (days post inoculation when tumors first palpable) ([18]; 0.06% dietary bixin): 45 days
mRNA expression levels of PIM-1, p-53, BAX, and BCL-2 [19]: dose dependent effects
maximum ADI (acceptable daily intake) [21]: 0.065 mg/day/kg body weight
absorption into the blood stream [22]: readily absorbed
inhibition of lipid peroxidation [23]: potent inhibitor
prevention of formation of cancer cells [24]: did not prevent
level of lipid peroxides in serum and liver [25]: significantly reduced
Connexin-43 gene expression [26]: does not up-regulate
lipoxydase inhibition, modulation of lipid hydroperoxide formation ([1]; Canfield et al.): lipoxydase inhibitor
antioxidant activity and lipoxidase inhibition [1]: strong antioxidant activity and lipoxidase inhibition
effect on xenobiotic enzymes of lung and kidney [27]: induction effect
DNA protection in vitro [6]: protects DNA
